From patent publication US4368194A, “Pharmacologically active amine boranes” (The United States of America as represented by the …, priority 1981, dated 1983)
Read-outs that look alike come from different tables or passages of the source.

What was measured:
[1] = test system: carrageenan induced edema in mouse foot pads; test: Anti-inflammatory screen (carrageenan induced foot edema); format: in vivo, mice; conditions: for Anti-inflammatory Screen: mice; for inhibition of the carrageenan induced edema in mouse foot pads: text summary of Table II
Procedure: CF1 male mice (about 30 g) were administered test drugs at 10 mg/kg in 0.05% polysorbate .80-water intraperitoneally 3 hr and 30 min prior to 0.05 ml of 2% carrageenan in 0.9% saline injected into the plantar surface of the right hind foot. Saline injected into the left hind foot served as a base line. After 3 hr, both feet were excised at the tibiotarsal (ankle) joint according to the modified (Roszkowski et al., J. Pharm. Exp. Ther., 179, 114 1971) method of Winter, resulting in an 87 mg net increase in the weight of the control animals' feet.

CF1 male mice = test: Writhing reflex (acetic acid); format: in vivo; conditions: for Writhing Reflex: 20 mg/kg intraperitoneally, mice; for inhibition of the writhing reflex: text summary of Table II
Procedure: CF1 male mice were administered test drugs at 20 mg/kg intraperitoneally 20 min (see Hendershat et al., J. Pharmacol Exp. Ther. 125, 237 1959) prior to the administration of 0.5 ml of 0.6% acetic acid (Vingar et al., European J. PHarmacol, 37, 23 1976). After 5 min the number of stretches, characterized by repeated contractures of the abdominal musculature accompanied by extension of the hind limbs, was counted for the next 10 min. The control mice had 78 stretch reflexes per 10 min.

Acid phosphatase [2] = test: Lysosomal free acid phosphatase activity, liver homogenate; format: biochemical, rats; conditions: 5 μmoles, in vitro; 20 min
Procedure: (§1) Lysosomal enzymatic assays - Sprague Dawley rats (about 160 g) were sacrificed, the liver excised, and a 10% homogenate (4x) in 0.25 M sucrose and 0.001 M (ethylenedinitrilo) tetra acetic acid, ph 7.2 was prepared.
(§2) Acid phosphatase activity (Gianetto et al., Biochem J., 59, 433 1955) was carried out by incubating with 0.1 Mβ-glycerol phosphate in 0.1 M acetate, pH 5.0 with 5 μmoles of test drugs in 1% carboxymethylcellulose (CMC) for 20 min with liver homogenate and 60 min with resuspended PMNs. Lysosome enzymes were released by 0.02% alkyl phenoxy polyethoxy ethanol-100 to obtain the total enzymatic activity. The reaction was stopped with 10% trichloroacetic acid and the solution centrifuged. Aliquots of the supernatant were assayed for inorganic phophate content by the method of Chen et al., Anal Chem., 28, 1756 (1956). Percent free acid phosphatase was calculated. Cathepsin activity was determined in an analagous manner except the substrate used was 2% azocasein (Schleuning et al., Methods in Enzymology, XLV, 330 1976) in 0.1 M acetate buffer pH 5.0. The supernatant was assayed for acid soluble peptide fragments at 366 nm. Percent free cathepsin activity was calculated.

Cathepsin [3] = test: Lysosomal free cathepsin activity, liver homogenate; format: biochemical, rats; conditions: 5 μmoles; for Liver % Free Cathepsin Activity, pH5: in vitro, 20 min
Procedure: as §1, §2

Acid phosphatase [4] = test: Lysosomal free acid phosphatase activity, PMNs; format: cell-based; conditions: 5 μmoles; for PMNs % Free Acid Phosphatase Activity, pH5: in vitro, 60 min
Procedure: (§3) Polymorphonuclear neutrophils (PMNs) were collected from the peritoneal cavity four hr after the injection of 35 ml of 0.5% oyster glycogen in isotonic saline (Orange et al., J. Exp. Med., 127, 767 1968). The PMNs were centrifuged down at 800 g for 20 min, washed, and resuspended in minumen essential medium (MEM) with 10% fetal calf serum pH 7.4.
as §2

Cathepsin [5] = test: Lysosomal free cathepsin activity, PMNs; format: cell-based; conditions: 5 μmoles; for PMNs % Free Cathespin Activity, pH5: in vitro, 60 min
Procedure: as §3, §2

cAMP levels in PMNs = test: Cyclic-3',5'-adenosine monophosphate levels (cAMP) in PMNs; format: cell-based
Procedure: as §3
Isolated PMNs were incubated with test drugs at 5μ moles for 1 hr at 37° C. in MEM at pH 7.4. The reaction was stopped with 6% trichloroacetic acid. The cyclic-3',5'-adenosine monophosphate levels were determined by the radioimmunoassay of Gilman, Proc. Natl. Acad. Sci. (USA), 67, 305 (1970), using 3H(G)-cyclic-3',5'-adenosine monophosphate (39.8 Cu/m mol). Results were calculated in p mole/10^7 PMNs cells.

[6] = target: T1, prostaglandin synthetase from beef seminal vesicle (Bos taurus, UniProt O62664); test: Prostaglandin synthetase activity; format: biochemical; conditions: 10^-6 M; for activity at 1 µM: 1 h, read-out: Prostaglandin Synthesis; for inhibition at 1 µM: read-out: inhibition of prostaglandin synthesis
T1 construct: purchased; host or cells: beef seminal vesicle
T1 sequence (O62664 25-600): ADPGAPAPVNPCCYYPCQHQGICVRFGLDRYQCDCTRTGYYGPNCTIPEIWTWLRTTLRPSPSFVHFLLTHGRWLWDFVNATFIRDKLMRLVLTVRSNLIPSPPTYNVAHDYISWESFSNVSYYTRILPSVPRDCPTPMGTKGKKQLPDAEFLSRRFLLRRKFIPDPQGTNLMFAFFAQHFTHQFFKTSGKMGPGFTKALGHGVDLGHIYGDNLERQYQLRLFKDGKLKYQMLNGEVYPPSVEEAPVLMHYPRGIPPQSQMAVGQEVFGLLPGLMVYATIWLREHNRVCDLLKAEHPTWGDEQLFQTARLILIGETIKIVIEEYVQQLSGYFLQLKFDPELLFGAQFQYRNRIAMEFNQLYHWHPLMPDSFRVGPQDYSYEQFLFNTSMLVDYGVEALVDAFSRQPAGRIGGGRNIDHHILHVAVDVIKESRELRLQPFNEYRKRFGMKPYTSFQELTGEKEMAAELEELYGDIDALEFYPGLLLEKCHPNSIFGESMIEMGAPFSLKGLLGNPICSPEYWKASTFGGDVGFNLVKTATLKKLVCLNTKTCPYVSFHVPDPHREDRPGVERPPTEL
Procedure: After 1 hr at 37° C. the reaction was stopped with 1 N HCl and extracted with ethyl ether and evaporated. […] The plates were dried and developed in iodine vapor and with the use of prostaglandin standards the appropriate areas were scraped and counted for ^3 H content. Indometacin was used as a standard at 10^-4 M concentration. Test drugs were used at 10^-6 M.

liver mitochondria [7] = test: Oxidative phosphorylation, succinate as substrate; format: biochemical, rats; conditions: 5 μmoles; for Oxidative Phosphorylation Succinate State 3: ADP stimulated respiration; for Oxidative Phosphorylation Succinate State 4: basal respiration
Procedure: (§4) Basal and adenosine diphosphate stimulated respiration on 10% liver homogenates was measured using succinate or αketoglutarate as substrate. See Glatt, et al., supra. The reaction vessel contained sucrose 55μ moles, KCl 22μ moles, K2 HPO4 22μ moles, test compounds at 5μ moles in 1% CMC and sodium succinate 90μ moles or αketoglutarate 60μ moles in a total volume of 1.8 ml. […] The rate of respiration was calculated at μl of O2 consumed/hr/mg wet weight of liver.

liver mitochondria [8] = test: Oxidative phosphorylation, α-ketoglutarate as substrate; format: biochemical, rats; conditions: 5 μmoles; for Oxidative Phosphorylation α Ketoglutarate State 3: ADP stimulated respiration; for Oxidative Phosphorylation α Ketoglutarate State 4: basal respiration
Procedure: as §4

in vivo = conditions: mouse
Sprague Dawley rats = test: Red and white blood cell counts after 3 weeks dosing; format: in vivo; conditions: rat, in vivo, ip
Description: Hematocrits were also obtained.

[9] = 1 h, pH 7.4, 5 μmoles, in vitro, read-out: PMNs cAMP Level
[10] = 1 h, pH 7.4, read-out: PMNs cAMP Level

Molecule	Anti-inflammatory Screen ([1]; 10 mg/kg × 2 intraperitoneally) [% Control]	Writhing Reflex (CF1 male mice) [% Control]	Liver % Free Acid Phosphatase Activity, pH5 (Acid phosphatase [2]) [% Control]	Liver % Free Cathepsin Activity, pH5 (Cathepsin [3]) [% Control]	PMNs % Free Acid Phosphatase Activity, pH5 (Acid phosphatase [4]) [% Control]	PMNs % Free Cathespin Activity, pH5 (Cathepsin [5]) [% Control]	activity at 5 µmol (cAMP levels in PMNs; [9]) [%]	activity at 1 µM [6] [%]	Oxidative Phosphorylation Succinate State 3 (liver mitochondria [7]) [% Control]	Oxidative Phosphorylation Succinate State 4 (liver mitochondria [7]) [% Control]	both states 3 and 4 respiration with α-ketoglutarate (liver mitochondria [8])	Oxidative Phosphorylation α Ketoglutarate State 3 (liver mitochondria [8]) [% Control]	Oxidative Phosphorylation α Ketoglutarate State 4 (liver mitochondria [8]) [% Control]	LD50 (in vivo) [mg/kg]	activity at 5 µmol (cAMP levels in PMNs; [10]) [%]	inhibition at 1 µM [6] [%]	other results
[BH3-][NH+](C)C [IV, (CH3)2 NH.BH3]	66	37	82 ± 3	67 ± 3	82 ± 6	65 ± 5	80	100 ± 5	82 ± 4	119 ± 9	inhibited	53 ± 16	67 ± 18	200			
C[NH+](C)[BH2-]C#N [VI, (CH3)2 NH.BH2 CN]	49	24	73 ± 4	32 ± 5	89 ± 4	22 ± 1		63 ± 4	61 ± 5	126 ± 19		45 ± 12	128 ± 25	39	98	> 30	inhibition of the carrageenan induced edema in mouse foot pads [1]: at least 50%; inhibition of the writhing reflex (CF1 male mice): 70%; uncoupling with α-ketoglutarate as substrate (liver mitochondria [8]): uncoupling
N#C[BH2-][NH2+]CC[NH2+][BH2-]C#N [XX, Ethylenediamine-bis(cyanoborane)]	87	95	77 ± 8	80 ± 7	100 ± 10	57 ± 2		81 ± 5	10 ± 5	13 ± 5	inhibited	25 ± 8	50 ± 18	> 150	28		both states 3 and 4 respiration with succinate (liver mitochondria [7]): inhibited
C[N+](C)([BH2-]C#N)CC[N+](C)(C)[BH2-]C#N [XI, N,N,N^1,N^1 -Tetramethylethylenediamine-bis(cyanoborane)]	95	76	80 ± 6	50 ± 7	84 ± 5	16 ± 5		85 ± 4	122 ± 13	116 ± 8		106 ± 21	168 ± 38	200	94		inhibition of PMN cathepsin activity (Cathepsin [5]): at least 82%
[Na{H3 N.BH2 (CN)}6 ]I [Compound X]	57	12				0 ± 3											inhibition of the carrageenan induced edema in mouse foot pads [1]: at least 40%; inhibition of the writhing reflex (CF1 male mice): 80%; alteration of the red blood or white blood cell count/cu mm (Sprague Dawley rats): no alteration; PMNs cAMP Level (cAMP levels in PMNs; 5 μmoles, in vitro, 60 min): 361 % Control; increase of cyclic adenosine monophosphate levels in PMNs (cAMP levels in PMNs; in vitro incubation, 5 μmoles): 261%; Prostaglandin Synthesis ([6]; 60 min, 1 µM): 42 ± 5 % Control
[BH3-][N+](C)(C)C [Compound III, (CH3)3 N.BH3]	65	47	72 ± 6	17 ± 4	57 ± 4	18 ± 3	145	61 ± 3	56 ± 12	117 ± 11	inhibited	28 ± 10	71 ± 8	740		> 30	inhibition of free proteolytic cathepsin activity of liver (Cathepsin [3]): at least 75%; inhibition of free acid phosphatase activity in PMNs (Acid phosphatase [4]): 43%; inhibition of PMN cathepsin activity (Cathepsin [5]): at least 82%; activation at 5 µmol (cAMP levels in PMNs; 1 h, in vitro incubation, 5 μmoles, read-out: increase of cyclic adenosine monophosphate levels in PMNs): 45%
N#C[BH2-][n+]1ccccc1 [XV, pyridinecyanoborane]		80	79 ± 3	57 ± 4	57 ± 4	49 ± 7	110	58 ± 3	57 ± 16	124 ± 16		52 ± 15	112 ± 42	25		> 30	Anti-inflammatory Screen ([1]; 1/3 dose (of 10 mg/kg × 2)): 83 % Control
